Measurements as given in patent US20240408169A1 (priority 2023, published 2024).
Like-named read-outs stand apart in the source and are kept apart here. *1 amine or outer side, *2 acyl side, *3 side chain or, on linkers, in order; H or OH if unused. Where a SMILES comes first, the peptide text is derived from it. Bridges are numbered along the chain shown (N, C = ends). [ ]: non-standard residue; d: D form. The star is where a group is joined. X90 = CC(=O)N1CC=C(c2ccc(Cl)cc2C[C@@H](C(=O)[*:2])N(C)[*:1])CC1; NMehhhLys(Me) = CN([C@@H](CCCCCCCN(C)[*:3])C(=O)[*:2])[*:1]; X215 = Cc1noc(C)c1-c1ccc(Cl)cc1C[C@@H](C(=O)[*:2])N(C)[*:1]; X66 = CN([C@@H](Cc1cc(Cl)ccc1-c1cccnc1)C(=O)[*:2])[*:1]; NMe3Pal(2-OMe,5-Cl) = CN[C@@H](Cc1cc(Cl)cnc1OC)C(=O)O; X213 = CN([C@@H](Cc1cc(Cl)cc2c1cnn2C)C(=O)[*:2])[*:1]; cBuCO(3,3-F2-1-CF3) = O=C(C1(C(F)(F)F)CC(F)(F)C1)*; Pro(trans-4-F) = O=C(O)[C@@H]1C[C@@H](F)CN1; Gly(cPr) = N[C@H](C(=O)O)C1CC1

Tests used:
OVCAR3 cells = assay: MTT proliferation assay, OVCAR3; assay type: cell-based; conditions: 5 days compound exposure, 1:3 serial dilution starting at 10 μM;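 note: compound given as an 8- or 10-point series, one day after plating, with exposure covering roughly 3-4 cell doublings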
CyclinE1/CDK2 = molecular target: T1, CyclinE1/CDK2 (Homo sapiens, UniProt P24864); assay: Fluorescence Polarization (FP) competitive binding assay, Cyclin E1/Cdk2;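 note: readings taken after two-hour equilibration at room temperature in HEPES buffer with NaCl, DTT, NP-40 and BSA, IC50 fitted from eight-concentration serial dilution series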
T1 construct: purchased Eurofins, discovery 14-475

CyclinB1/CDK1 = molecular target: T2, CyclinB1/CDK1 (Homo sapiens, UniProt P14635); assay: Fluorescence Polarization (FP) competitive binding assay, Cyclin B1/Cdk1;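 note: fluorescence polarization read after equilibration at room temperature, with IC50 taken from serially diluted dose-response curves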
T2 construct: purchased Eurofins, discovery 14-450

NCI-H1048 cells = assay: MTT proliferation assay, NCI-H1048; assay type: cell-based; conditions: 5 days compound exposure, 1:3 serial dilution starting at 10 μM;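 note: Dose-response in 96-well plates over 8 or 10 concentration points, with exposure spanning 3-4 cell doublings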
CyclinA2/CDK2 = molecular target: T3, CyclinA2/CDK2 (Homo sapiens, UniProt P20248); assay: Fluorescence Polarization (FP) competitive binding assay, Cyclin A2/Cdk2;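 note: plates equilibrated two hours at room temperature before polarization reading, IC50 fitted from eight-concentration compound titration curves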
T3 construct: purchased CRELUX Protein Services

[1] = read-out: Cyclin B FP IC50; 10 nM Cyclin B1/Cdk1, 2 nM FAM probe; average of 2-3 independent experiments
[2] = 10 nM Cyclin E1/Cdk2, 2 nM FAM probe, average of 2-3 independent experiments, read-out: Cyclin E FP IC50
[3] = 10 nM Cyclin B1/Cdk1, 2 nM FAM probe; average of 2-3 independent experiments; read-out: Cyclin B FP IC50
[4] = 8 nM Cyclin A2/Cdk2, 2 nM FAM probe, average of 2-3 independent experiments, read-out: Cyclin A FP IC50

SMILES	GI50 (OVCAR3 cells) [nM]	IC50 (CyclinE1/CDK2) [nM]	IC50 (CyclinB1/CDK1; [1]) [nM]	GI50 (NCI-H1048 cells) [nM]	IC50 (CyclinE1/CDK2; [2]) [nM]	IC50 (CyclinB1/CDK1; [3]) [nM]	IC50 (CyclinA2/CDK2; [4]) [nM]	IC50 (CyclinA2/CDK2) [nM]
COc1ncc(Cl)cc1C[C@H]1C(=O)N(C)CCCCCCC[C@H](N(C)C(=O)[C@@H](NC(=O)[C@@H]2C[C@@H](F)CN2C(=O)C2(C(F)(F)F)CC(F)(F)C2)C2CC2)C(=O)N[C@@H](CC(C)C)C(=O)N1C [Example 222] ({cBuCO(3,3-F2-1-CF3)}-[Pro(trans-4-F)][Gly(cPr)][NMehhhLys(Me)]L[NMe3Pal(2-OMe,5-Cl)]; lactam 3-C)	10	230	20	10	–	–	–	–
CC(C)C[C@@H]1NC(=O)[C@@H](N(C)C(=O)[C@@H](NC(=O)[C@@H]2C[C@@H](F)CN2C(=O)C2(C(F)(F)F)CC(F)(F)C2)C2CC2)CC=CCCCCN(C)C(=O)[C@H](Cc2cc(Cl)ccc2Cl)N(C)C1=O [Example 14]	200	–	–	100	340	20	–	–
CC(C)C[C@@H]1NC(=O)[C@@H](N(C)C(=O)[C@@H](NC(=O)[C@@H]2C[C@@H](F)CN2C(=O)C2(C(F)(F)F)CC(F)(F)C2)C2CC2)CCCCCCCN(C)C(=O)[C@H](Cc2cc(Cl)ccc2-c2cccnc2)N(C)C1=O [Example 196] ({cBuCO(3,3-F2-1-CF3)}-[Pro(trans-4-F)][Gly(cPr)][NMehhhLys(Me)]L[X66]; lactam 3-C)	10	–	–	10	740	20	–	–
CC(C)C[C@@H]1NC(=O)[C@@H](N(C)C(=O)[C@@H](NC(=O)[C@@H]2C[C@@H](F)CN2C(=O)C2(C(F)(F)F)CC(F)(F)C2)C2CC2)CC=CCCCCNC(=O)[C@H](Cc2cc(Cl)ccc2C2=CCC(F)(F)CC2)N(C)C1=O [Example 22]	1800	–	–	1100	–	20	210	–
CC(=O)N1CC=C(c2ccc(Cl)cc2C[C@H]2C(=O)N(C)CCCCCCC[C@H](N(C)C(=O)[C@@H](NC(=O)[C@@H]3C[C@@H](F)CN3C(=O)C3(C(F)(F)F)CC(F)(F)C3)C3CC3)C(=O)N[C@@H](CC(C)C)C(=O)N2C)CC1 [Example 50, (2S,4R)—N—((S)-2-(((3S,6S,9S)-3-(2-(1-acetyl-1,2,3,6-tetrahydropyridin-4-yl)-5-chlorobenzyl)-6-isobutyl-1,4-dimethyl-2,5,8-trioxo-1,4,7-triazacyclohexadecan-9-yl)(methyl)amino)-1-cyclopropyl-2-oxoethyl)-1-(3,3-difluoro-1-(trifluoromethyl)cyclobutane-1-carbonyl)-4-fluoropyrrolidine-2-carboxamide] ({cBuCO(3,3-F2-1-CF3)}-[Pro(trans-4-F)][Gly(cPr)][NMehhhLys(Me)]L[X90]; lactam 3-C)	10	–	–	10	1220	20	–	–
CC(C)C[C@@H]1NC(=O)[C@@H](N(C)C(=O)[C@@H](NC(=O)[C@@H]2C[C@@H](F)CN2C(=O)C2(C(F)(F)F)CC(F)(F)C2)C2CC2)CC=CCCCCNC(=O)[C@H](Cc2cc(Cl)ccc2-c2cccc(Cl)c2)N(C)C1=O [Example 19]	1760	–	–	550	–	20	430	–
CC(C)C[C@@H]1NC(=O)[C@@H](N(C)C(=O)[C@@H](NC(=O)[C@@H]2C[C@@H](F)CN2C(=O)C2(C(F)(F)F)CC(F)(F)C2)C2CC2)CCCCCCCN(C)C(=O)[C@H](Cc2cc(Cl)cc3c2cnn3C)N(C)C1=O [Example 424] ({cBuCO(3,3-F2-1-CF3)}-[Pro(trans-4-F)][Gly(cPr)][NMehhhLys(Me)]L[X213]; lactam 3-C)	1780	–	–	2510	3820	45.5	–	–
CC(C)C[C@@H]1NC(=O)[C@@H](N(C)C(=O)[C@@H](NC(=O)[C@@H]2C[C@@H](F)CN2C(=O)C2(C(F)(F)F)CC3(CCC3)C2)C2CC2)CC=CCCCCNC(=O)[C@H](Cc2cc(Cl)ccc2Cl)N(C)C1=O (single isomer, unassigned) [Example 16-P1]	880	–	–	340	3150	20	–	–
Cc1noc(C)c1-c1ccc(Cl)cc1C[C@H]1C(=O)N(C)CCCCCCC[C@H](N(C)C(=O)[C@@H](NC(=O)[C@@H]2C[C@@H](F)CN2C(=O)C2(C(F)(F)F)CC(F)(F)C2)C2CC2)C(=O)N[C@@H](CC(C)C)C(=O)N1C [Example 210] ({cBuCO(3,3-F2-1-CF3)}-[Pro(trans-4-F)][Gly(cPr)][NMehhhLys(Me)]L[X215]; lactam 3-C)	110	–	20	100	–	–	–	420
CC(C)C[C@@H]1NC(=O)[C@@H](N(C)C(=O)[C@@H](NC(=O)[C@@H]2C[C@@H](F)CN2C(=O)C2(C(F)(F)F)CC3(CCC3)C2)C2CC2)CC=CCCCCNC(=O)[C@H](Cc2cc(Cl)ccc2Cl)N(C)C1=O (single isomer, unassigned) [Example 16-P2]	990	–	–	350	2710	20	–	–
